These compounds were tested against T1, hα4 and β1 integrins (VLA-4) (Homo sapiens, UniProt P05556+P13612) (assay: In vitro evaluation: inhibition of binding of CHO cells expressing hα4 and β1 integrins to Eu3+-hVCAM-1 D1D7-IgG). Conditions: ligand Eu3+-hVCAM-1 D1D7-IgG 2 nM, Ki calculated from IC50.
T1 construct: expressed in transfected cells; host or cells: CHO cells
T1 sequence (P13612 34-1032): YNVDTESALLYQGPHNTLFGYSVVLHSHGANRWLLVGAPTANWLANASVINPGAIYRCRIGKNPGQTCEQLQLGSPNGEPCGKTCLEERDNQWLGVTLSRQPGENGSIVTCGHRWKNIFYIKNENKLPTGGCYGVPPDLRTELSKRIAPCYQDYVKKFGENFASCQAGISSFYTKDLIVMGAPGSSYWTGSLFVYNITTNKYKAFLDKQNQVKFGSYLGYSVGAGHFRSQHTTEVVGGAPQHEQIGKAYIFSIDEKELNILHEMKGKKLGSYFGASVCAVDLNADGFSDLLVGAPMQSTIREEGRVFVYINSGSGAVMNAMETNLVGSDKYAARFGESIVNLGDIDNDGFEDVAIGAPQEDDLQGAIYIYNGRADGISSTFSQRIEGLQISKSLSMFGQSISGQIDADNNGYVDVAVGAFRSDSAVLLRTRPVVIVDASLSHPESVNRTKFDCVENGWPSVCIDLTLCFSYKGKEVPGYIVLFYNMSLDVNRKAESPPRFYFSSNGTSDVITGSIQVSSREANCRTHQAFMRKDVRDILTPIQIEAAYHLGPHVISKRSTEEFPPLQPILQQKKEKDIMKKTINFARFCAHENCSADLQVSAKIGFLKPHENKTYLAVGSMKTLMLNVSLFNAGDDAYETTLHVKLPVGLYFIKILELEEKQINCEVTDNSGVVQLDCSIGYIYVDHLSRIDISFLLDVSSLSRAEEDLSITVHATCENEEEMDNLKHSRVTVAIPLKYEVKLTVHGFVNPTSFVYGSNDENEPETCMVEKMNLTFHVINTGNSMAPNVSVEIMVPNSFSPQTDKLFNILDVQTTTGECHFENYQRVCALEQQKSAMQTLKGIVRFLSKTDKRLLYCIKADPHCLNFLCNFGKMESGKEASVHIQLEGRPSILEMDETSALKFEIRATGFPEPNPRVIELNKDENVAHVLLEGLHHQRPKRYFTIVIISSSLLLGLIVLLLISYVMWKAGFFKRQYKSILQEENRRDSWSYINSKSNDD
T1 sequence (P05556 21-798): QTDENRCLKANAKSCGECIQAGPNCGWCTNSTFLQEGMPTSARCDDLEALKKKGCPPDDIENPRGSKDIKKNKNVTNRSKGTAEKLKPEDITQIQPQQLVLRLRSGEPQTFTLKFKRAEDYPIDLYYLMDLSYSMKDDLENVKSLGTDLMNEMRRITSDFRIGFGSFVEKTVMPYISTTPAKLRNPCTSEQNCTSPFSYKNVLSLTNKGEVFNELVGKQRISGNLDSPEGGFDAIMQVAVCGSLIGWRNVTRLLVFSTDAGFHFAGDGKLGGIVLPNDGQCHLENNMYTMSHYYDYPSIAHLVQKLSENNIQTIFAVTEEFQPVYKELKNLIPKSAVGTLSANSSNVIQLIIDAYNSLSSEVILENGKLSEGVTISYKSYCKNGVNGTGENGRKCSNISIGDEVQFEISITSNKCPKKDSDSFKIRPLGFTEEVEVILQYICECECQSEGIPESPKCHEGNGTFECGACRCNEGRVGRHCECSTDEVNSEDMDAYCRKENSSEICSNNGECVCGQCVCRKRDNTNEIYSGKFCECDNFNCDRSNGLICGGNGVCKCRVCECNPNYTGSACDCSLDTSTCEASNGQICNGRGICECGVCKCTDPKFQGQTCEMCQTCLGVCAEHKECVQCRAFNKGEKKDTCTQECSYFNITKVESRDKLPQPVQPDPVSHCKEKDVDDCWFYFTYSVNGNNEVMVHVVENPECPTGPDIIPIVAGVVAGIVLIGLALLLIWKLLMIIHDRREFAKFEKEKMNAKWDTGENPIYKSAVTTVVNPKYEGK
Experimental: CHO cells which were forced to be expressed by transduction of hα4 and β1 integrins are seeded (3×10^4 cells/100 μl/well) on a Costar 3599 plate, and cultured for 2 days. A medium is washed with a buffer A* two times, and Eu^3+-hVCAM-1 D1D7-IgG which was diluted with an assay buffer A** to 2 nM is added at 50 μl/well. A test substance which was diluted with 2% DMSO-assay buffer (in the presence or the absence of 6% human serum albumin) is added at 50 μl/well (A solution which was separately diluted is added to a well in which Scatchard analysis is performed), this is stirred with a plate mixer for 5 minutes, and allowed to stand at room temperature for 1 hour. Thereafter, this is washed with a buffer A four times, a potentiating reagent (manufactured by DELFIA) is added at 100 μl/well, this is shaken for 5 minutes using a plate mixer, and a fluorescence intensity is measured with a time-resolved fluorometer (DELFIA Wallac). IC50 (concentration at which binding of CHO cell and Eu^3+-hVCAM-1 D1D7-IgG is inhibited by 50%) of a test substance is obtained from an integration rate obtained from a calculation equation: [(FT−FNS)−(FI−FNS)]/[(FT−FNS)]×100, wherein FT indicates a fluorescence intensity of a well not containing a test substance, FNS indicates a fluorescence intensity of a well not containing a test substance and hVCAM-1 D1D7-IgG, and FI indicates a fluorescence intensity containing a test substance. A Kd value showing strength of binding and Bmax (maximum binding amount) were presumed in a range of 0.06 to 20 nM according to the Scachard analysis method. [formula]
A Ki value was calculated according to the above equation ([L] is ligand concentration)
[* buffer A: 25 mM HEPES (pH 7.5), 150 mM NaCl, 1 mM Ca^2+, 1 mM Mg^2+, 4 mM Mn^2+; ** assay buffer: 25 mM HEPES (pH 7.5), 150 mM NaCl, 1 mM Ca^2+, 1 mM Mg^2+, 4 mM Mn^2+, 0.1% BSA, 20 μM DTPA, with/without 6% ALBUMIN, HUMAN SERUM (C/NA-1653, SIGMA)]
“3-[2-[1-[4-(3-Benzo[b]thiophenylcarbonyl)amino-5-chloro-2-fluorophenyl]acetyl]-(3S)-ethoxy-(2S)-pyrrolidinyl]-5-oxazolyl]propionic acid methyl ester [Example 99]” was tested, and the Ki was 5.3 nM. `COc1cc(CC(=O)N[C@@H](CC(C)C)c2cc(CCC(=O)O)on2)ccc1NC(=O)Nc1ccccc1C` [CP664511] gave a Ki of 1.5 nM. `CO[C@H]1C[C@@H](c2ncc(CCC(=O)O)s2)N(C(=O)Cc2cc(Cl)c(NC(=O)c3csc4ccccc34)cc2Cl)C1` [Example 3, 3-[2-[1-[[4-[(3-Benzo[b]thienylcarbonyl)amino]-2,5-dichlorophenyl]acetyl]-(4S)-methoxy-(2S)-pyrrolidinyl]-5-thiazolyl]propionic acid] showed a Ki of 0.58 nM. With `CO[C@H]1C[C@@H](c2ncc(CCC(=O)O)s2)N(C(=O)Cc2cc(Cl)c(NC(=O)c3coc4ccccc34)cc2Cl)C1` [Example 5, 3-[2-[1-[4-[(1-Benzofuran-3-ylcarbonyl)amino]-2,5-dichlorophenylacetyl]-(4S)-methoxy-(2S)-pyrrolidinyl]-5-thiazolyl]propionic acid] the Ki was 0.6 nM. Compound `CO[C@H]1C[C@@H](c2ncc(CCC(=O)O)s2)N(C(=O)Cc2cc(Cl)c(NC(=O)c3coc4ccccc34)cc2F)C1` [Example 6, 3-[2-[1-[4-[(1-Benzofuran-3-ylcarbonyl)amino]-5-chloro-2-fluorophenylacetyl]-(4S)-methoxy-(2S)-pyrrolidinyl]-5-thiazolyl]propionic acid] has a Ki of 0.4 nM. Compound `CO[C@H]1C[C@@H](c2ncc(CCC(=O)O)s2)N(C(=O)Cc2cc(Cl)c(NC(=O)c3nn(C)c4ccccc34)cc2F)C1` [Example 7, 3-[2-[1-[5-Chloro-2-fluoro-4-(1-methyl-3-indazolylcarbonyl)aminophenylacetyl]-(4S)-methoxy-(2S)-pyrrolidinyl]-5-thiazolyl]propionic acid] has a Ki of 0.97 nM. `CO[C@H]1C[C@@H](c2ncc(CCC(=O)O)s2)N(C(=O)Cc2ccc3nc(Nc4cc(F)ccc4C)oc3c2F)C1` [Example 8] showed a Ki of 0.34 nM. `COc1ccc(F)cc1Nc1nc2ccc(CC(=O)N3C[C@@H](OC)C[C@H]3c3ncc(CCC(=O)O)s3)c(F)c2o1` [Example 9, 3-[2-[1-[[7-Fluoro-2-(5-fluoro-2-methoxyphenylamino)-1,3-benzoxazol-6-yl]acetyl]-(4S)-methoxy-(2S)-pyrrolidinyl]-5-thiazolyl]propionic acid] was tested, and the Ki was 0.96 nM. `CO[C@H]1C[C@@H](c2ncc(CCC(=O)O)s2)N(C(=O)Cc2ccc3nc(-c4cn(C)c5ccccc45)oc3c2F)C1` [Example 11, 3-[2-[1-[7-Fluoro-2-(1-methylindol-3-yl)-1,3-benzoxazol-6-ylacetyl]-(4S)-methoxy-(2S)-pyrrolidinyl]-5-thiazolyl]propionic acid] gave a Ki of 0.5 nM. Compound `CO[C@H]1C[C@@H](c2ncc(CCC(=O)O)o2)N(C(=O)Cc2cc(Cl)c(NC(=O)c3cn(C)c4ccccc34)cc2Cl)C1` [Example 12, 3-[2-[1-[2,5-Dichloro-4-(1-methyl-3-indolylcarbonylamino)phenylacetyl]-(4S)-methoxy-(2S)-pyrrolidinyl]-5-oxazolyl]propionic acid] has a Ki of 18 nM. In the case of `CO[C@H]1C[C@@H](c2ncc(CCC(=O)O)o2)N(C(=O)Cc2cc(Cl)c(NC(=O)c3cn(C)c4ccccc34)cc2F)C1` [Example 13, 3-[2-[1-[5-Chloro-2-fluoro-4-(1-methyl-3-indolylcarbonyl)aminophenylacetyl]-(4S)-methoxy-(2S)-pyrrolidinyl]-5-oxazolyl]propionic acid], the Ki is reported as 17 nM. For `CO[C@H]1C[C@@H](c2ncc(CCC(=O)O)o2)N(C(=O)Cc2cc(Cl)c(NC(=O)c3csc4ccccc34)cc2Cl)C1` [Example 14, 3-[2-[1-[[4-[(3-Benzo[b]thienylcarbonyl)amino]-2,5-dichlorophenyl]acetyl]-(4S)-methoxy-(2S)-pyrrolidinyl]-5-oxazolyl]propionic acid], the Ki was 4 nM. In the case of `CO[C@H]1C[C@@H](c2ncc(CCC(=O)O)o2)N(C(=O)Cc2cc(Cl)c(NC(=O)c3csc4ccccc34)cc2F)C1` [Example 15, 3-[2-[1-[[4-[(3-Benzo[b]thienylcarbonyl)amino]-5-chloro-2-fluorophenyl]acetyl]-(4S)-methoxy-(2S)-pyrrolidinyl]-5-oxazolyl]propionic acid], the Ki is reported as 4.5 nM. Compound `COc1ccc(F)cc1Nc1nc2ccc(CC(=O)N3C[C@@H](OC)C[C@H]3c3ncc(CCC(=O)O)o3)c(F)c2o1` [Example 16, 3-[2-[1-[[7-Fluoro-2-(5-fluoro-2-methoxyphenylamino)-1,3-benzoxazol-6-yl]acetyl]-(4S)-methoxy-(2S)-pyrrolidinyl]-5-oxazolyl]propionic acid] has a Ki of 22 nM. In the case of `COc1ccccc1Nc1nc2ccc(CC(=O)N3C[C@@H](OC)C[C@H]3c3ncc(CCC(=O)O)o3)c(F)c2o1` [Example 17, 3-[2-[1-[[7-Fluoro-2-(2-methoxyphenylamino)-1,3-benzoxazol-6-yl]acetyl]-(4S)-methoxy-(2S)-pyrrolidinyl]-5-oxazolyl]propionic acid], the Ki is reported as 15 nM. For `Cn1cc(C(=O)Nc2cc(Cl)c(CC(=O)N3C[C@@H](F)C[C@H]3c3ncc(CCC(=O)O)s3)cc2Cl)c2ccccc21` [Example 18, 3-[2-[1-[2,5-Dichloro-4-(1-methyl-3-indolylcarbonylamino)phenylacetyl]-(4S)-fluoro-(2S)-pyrrolidinyl]-5-thiazolyl]propionic acid], the Ki was 1.1 nM. In the case of `Cn1cc(C(=O)Nc2cc(F)c(CC(=O)N3C[C@@H](F)C[C@H]3c3ncc(CCC(=O)O)s3)cc2Cl)c2ccccc21` [Example 19, 3-[2-[1-[5-Chloro-2-fluoro-4-(1-methyl-3-indolylcarbonyl)aminophenylacetyl]-(4S)-fluoro-(2S)-pyrrolidinyl]-5-thiazolyl]propionic acid], the Ki is reported as 0.94 nM. For `O=C(O)CCc1cnc([C@@H]2C[C@H](F)CN2C(=O)Cc2cc(Cl)c(NC(=O)c3csc4ccccc34)cc2Cl)s1` [Example 20, 3-[2-[1-[[4-[(3-Benzo[b]thienylcarbonyl)amino]-2,5-dichlorophenyl]acetyl]-(4S)-fluoro-(2S)-pyrrolidinyl]-5-thiazolyl]propionic acid], the Ki was 0.69 nM. In the case of `O=C(O)CCc1cnc([C@@H]2C[C@H](F)CN2C(=O)Cc2cc(Cl)c(NC(=O)c3csc4ccccc34)cc2F)s1` [Example 21, 3-[2-[1-[[4-[(3-Benzo[b]thienylcarbonyl)amino]-5-chloro-2-fluorophenyl]acetyl]-(4S)-fluoro-(2S)-pyrrolidinyl]-5-thiazolyl]propionic acid], the Ki is reported as 0.61 nM. `O=C(O)CCc1cnc([C@@H]2C[C@H](F)CN2C(=O)Cc2cc(Cl)c(NC(=O)c3coc4ccccc34)cc2F)s1` [Example 22, 3-[2-[1-[[4-[(1-Benzofuran-3-ylcarbonyl)amino]-5-chloro-2-fluorophenyl]acetyl]-(4S)-fluoro-(2S)-pyrrolidinyl]-5-thiazolyl]propionic acid] was tested, and the Ki was 0.23 nM. Compound `COc1ccccc1Nc1nc2ccc(CC(=O)N3C[C@@H](F)C[C@H]3c3ncc(CCC(=O)O)s3)c(F)c2o1` [Example 23, 3-[2-[1-[[7-Fluoro-2-(2-methoxyphenylamino)-1,3-benzoxazol-6-yl]acetyl]-(4S)-fluoro-(2S)-pyrrolidinyl]-5-thiazolyl]propionic acid] has a Ki of 0.35 nM. For `CO[C@@H]1C[C@@H](c2ncc(CCC(=O)O)s2)N(C(=O)Cc2cc(Cl)c(NC(=O)c3cn(C)c4ccccc34)cc2Cl)C1` [Example 24, 3-[2-[1-[2,5-Dichloro-4-(1-methyl-3-indolylcarbonylamino)phenylacetyl]-(4R)-methoxy-(2S)-pyrrolidinyl]-5-thiazolyl]propionic acid], the Ki was 6.5 nM. In the case of `Cn1cc(C(=O)Nc2cc(F)c(CC(=O)N3CCC[C@H]3c3ncc(CCC(=O)O)s3)cc2Cl)c2ccccc21` [Example 27, 3-[2-[1-[5-Chloro-2-fluoro-4-(1-methyl-3-indolylcarbonyl)aminophenylacetyl]-(2S)-pyrrolidinyl]-5-thiazolyl]propionic acid], the Ki is reported as 1.2 nM. Compound `O=C(O)CCc1cnc([C@@H]2CCCN2C(=O)Cc2cc(Cl)c(NC(=O)c3csc4ccccc34)cc2Cl)s1` [Example 28, 3-[2-[1-[[4-[(3-Benzo[b]thienylcarbonyl)amino]-2,5-dichlorophenyl]acetyl]-(2S)-pyrrolidinyl]-5-thiazolyl]propionic acid] has a Ki of 0.86 nM. Work on `O=C(O)CCc1cnc([C@@H]2CCCN2C(=O)Cc2cc(Cl)c(NC(=O)c3csc4ccccc34)cc2F)s1` [Example 29, 3-[2-[1-[4-[(3-Benzo[b]thienylcarbonyl)amino]-5-chloro-2-fluorophenylacetyl]-(2S)-pyrrolidinyl]-5-thiazolyl]propionic acid] yielded a Ki of 0.26 nM.

From US20070232601A1, “Vla-4 Inhibitor” (priority 2004, published 2007)
